Assay results taken from patent publication EP4796557A1, “POLYPEPTIDE, BIOACTIVE CONJUGATE, AND PREPARATION METHOD THEREFOR AND USE THEREOF” (priority 2023, dated 2025).
Numbered stars: 1 amine (or outer) side, 2 acyl side, 3 side chain; on linkers, the order of the positions; unused ones are H or OH. Square brackets hold non-standard residues; d marks the D form. Peptide text beside a SMILES is read from it. * marks the point of attachment. Exatecan = CC[C@@]1(O)C(=O)OCc2c1cc1n(c2=O)Cc2c-1nc1cc(F)c(C)c3c1c2[C@@H](N*)CC3; Hexanoyl(6-maleimido) = O=C1C=CC(=O)N1CCCCCC(=O)*; PABC = O=C(OCc1ccc(N[*:1])cc1)[*:2]; Cit = NC(=O)NCCC[C@H](N)C(=O)O; X1 = CN(C)CC(N[*:1])C(=O)[*:2]

How the values were obtained:
Type in all cases: biochemical
MMP2 [1] = molecular target: T1, MMP2 (Homo sapiens, UniProt P08253); assay: Enzymolysis assay of polypeptides by MMP2 (RP-HPLC); conditions: test polypeptide 100 µmol, activated MMP2, 37°C, 4 h
T1 sequence (P08253 110-660): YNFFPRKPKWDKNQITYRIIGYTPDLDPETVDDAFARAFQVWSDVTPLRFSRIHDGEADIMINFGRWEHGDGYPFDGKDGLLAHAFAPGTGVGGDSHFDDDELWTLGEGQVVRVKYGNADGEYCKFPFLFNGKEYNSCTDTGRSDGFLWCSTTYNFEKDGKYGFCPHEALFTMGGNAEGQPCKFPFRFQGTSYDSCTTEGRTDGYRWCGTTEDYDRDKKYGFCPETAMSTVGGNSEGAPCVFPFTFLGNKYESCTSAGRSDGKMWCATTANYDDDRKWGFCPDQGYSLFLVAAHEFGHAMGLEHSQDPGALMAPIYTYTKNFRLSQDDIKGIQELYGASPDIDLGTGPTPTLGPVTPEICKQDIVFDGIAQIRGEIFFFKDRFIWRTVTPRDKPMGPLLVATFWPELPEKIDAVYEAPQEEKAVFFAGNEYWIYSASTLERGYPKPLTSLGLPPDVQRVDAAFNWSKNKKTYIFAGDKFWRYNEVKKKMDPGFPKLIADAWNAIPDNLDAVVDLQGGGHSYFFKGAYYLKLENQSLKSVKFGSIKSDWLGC
Method: (§1) First, MMP2 or MMP9 enzyme solution having a final concentration of 200 µg/mL was mixed with 4 mM APMA at a ratio of 1:1, placed in a 37°C water bath and incubated for 24 h to activate the MMP2 or MMP9 enzyme solution. Subsequently, the test polypeptide having a final concentration of 100 µmol was incubated with the activated MMP2 or MMP9 enzyme solution in a 37°C water bath for 4 h. After the reaction was complete, an equal volume of acetonitrile solution was added thereto, followed by RP-HPLC analysis.
(§2) The enzymolysis efficiency of the polypeptide was calculated based on the peak areas of the target peak before and after enzymolysis. The formula is as follows: Enzymolysis efficiency = […] [formula]

MMP9 [2] = molecular target: T2, MMP9 (Homo sapiens, UniProt P14780); assay: Enzymolysis assay of polypeptides by MMP9 (RP-HPLC); conditions: polypeptide 100 µmol with activated MMP9, 37°C, 4 h, RP-HPLC peak areas
Method: as §1, §2

MMP9 [3] = molecular target: T2, MMP9; assay: Enzymolysis assay of the linker-payload by MMP9 (LC-MS); conditions: linker-payload 100 µmol, activated MMP9 0.2 µg/mL, 37°C, 24 h
Method: MMP9 having a final concentration of 200 µg/mL was mixed with 4 mM APMA at a ratio of 1:1 and placed in a 37°C water bath and incubated for 24 h to activate the MMP9 enzyme solution. Subsequently, the linker-payload having a final concentration of 100 µmol was incubated with the activated MMP9 solution having a final concentration of 0.2 µg/mL in a 37°C water bath for 24 h. After the reaction was complete, LC-MS analysis was performed.

MMP2 [4] = molecular target: T1, MMP2; assay: Enzymolysis assay of the linker-payload by MMP2 (LC-MS); conditions: linker-payload 100 µmol, activated MMP2 1 µg/mL, 37°C, 24 h
Method: MMP2 having a final concentration of 200 µg/mL was mixed with 4 mM APMA at a ratio of 1:1 and placed in a 37°C water bath and incubated for 24 h to activate the MMP2 enzyme solution. Subsequently, the linker-payload having a final concentration of 100 µmol was incubated with the activated MMP2 solution having a final concentration of 1 µg/mL in a 37°C water bath for 24 h. After the reaction was complete, LC-MS analysis was performed.

T2 sequence (P14780 107-707 limits assumed, species assumed): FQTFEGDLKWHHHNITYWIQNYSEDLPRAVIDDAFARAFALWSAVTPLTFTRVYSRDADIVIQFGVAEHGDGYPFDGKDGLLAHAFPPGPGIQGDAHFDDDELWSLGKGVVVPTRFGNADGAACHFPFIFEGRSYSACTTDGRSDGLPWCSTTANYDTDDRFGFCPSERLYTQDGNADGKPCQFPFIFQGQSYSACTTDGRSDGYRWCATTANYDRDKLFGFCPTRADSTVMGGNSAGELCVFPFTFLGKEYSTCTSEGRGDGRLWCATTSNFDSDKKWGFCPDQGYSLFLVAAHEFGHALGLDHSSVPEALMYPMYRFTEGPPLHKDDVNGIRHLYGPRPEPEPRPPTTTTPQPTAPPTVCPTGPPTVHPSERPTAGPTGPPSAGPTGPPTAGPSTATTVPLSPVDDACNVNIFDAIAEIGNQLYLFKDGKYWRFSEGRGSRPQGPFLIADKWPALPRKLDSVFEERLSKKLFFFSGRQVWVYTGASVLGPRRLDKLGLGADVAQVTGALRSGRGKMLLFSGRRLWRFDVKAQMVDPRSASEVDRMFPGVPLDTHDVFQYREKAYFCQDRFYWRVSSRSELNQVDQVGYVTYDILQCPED

## CC(=O)N[C@@H](Cc1c[nH]cn1)C(=O)N1CCC[C@H]1C(=O)N[C@@H](CCCNC(=N)N)C(=O)N1CCC[C@H]1C(=O)N[C@@H](CC(C)C)C(=O)N[C@H](C(=O)N[C@@H](CCCNC(N)=O)C(N)=O)C(C)C [Compound 2-P14] (Ac-HPRPLV[Cit]-NH2)
MMP2 [1]
  Enzymolysis efficiency (%): 54.65%
MMP9 [2]
  Enzymolysis efficiency (%): 58.33%

## CC(=O)N[C@@H](Cc1c[nH]cn1)C(=O)N1CCC[C@H]1C(=O)N[C@@H](CCCNC(=N)N)C(=O)N[C@@H](CC(N)=O)C(=O)N[C@@H](CC(C)C)C(=O)N[C@H](C(=O)N[C@@H](CCCNC(N)=O)C(N)=O)C(C)C [Compound 2-P15] (Ac-HPRNLV[Cit]-NH2)
MMP2 [1]
  Enzymolysis efficiency (%): 63.27%
MMP9 [2]
  Enzymolysis efficiency (%): 94.69%

## CC(=O)N[C@@H](Cc1c[nH]cn1)C(=O)N1CCC[C@H]1C(=O)N[C@@H](CCCNC(N)=O)C(=O)NCC(=O)N[C@@H](CC(C)C)C(=O)N[C@H](C(=O)N[C@@H](CCCNC(N)=O)C(N)=O)C(C)C [Compound 2-P16] (Ac-HP[Cit]GLV[Cit]-NH2)
MMP2 [1]
  Enzymolysis efficiency (%): 53.54%
MMP9 [2]
  Enzymolysis efficiency (%): 64.81%

## CC(=O)N[C@@H](Cc1c[nH]cn1)C(=O)N1CCC[C@H]1C(=O)N[C@@H](CCCNC(N)=O)C(=O)N1CCC[C@H]1C(=O)N[C@@H](CC(C)C)C(=O)N[C@H](C(=O)N[C@@H](CCCNC(N)=O)C(N)=O)C(C)C [Compound 2-P17] (Ac-HP[Cit]PLV[Cit]-NH2)
MMP2 [1]
  Enzymolysis efficiency (%): 42.87%
MMP9 [2]
  Enzymolysis efficiency (%): 48.98%

## CC(=O)N[C@@H](CO)C(=O)N1CCC[C@H]1C(=O)N[C@@H](CCCNC(=N)N)C(=O)NCC(=O)N[C@@H](CC(C)C)C(=O)N[C@H](C(=O)N[C@@H](CCCNC(N)=O)C(N)=O)C(C)C [Compound 2-P18] (Ac-SPRGLV[Cit]-NH2)
MMP2 [1]
  Enzymolysis efficiency (%): 86.03%
MMP9 [2]
  Enzymolysis efficiency (%): 93.84%

## CC(=O)N[C@@H](CO)C(=O)N1CCC[C@H]1C(=O)N[C@@H](CCCNC(=N)N)C(=O)N[C@@H](CO)C(=O)N[C@@H](CC(C)C)C(=O)N[C@H](C(=O)N[C@@H](CCCNC(N)=O)C(N)=O)C(C)C [Compound 2-P19] (Ac-SPRSLV[Cit]-NH2)
MMP2 [1]
  Enzymolysis efficiency (%): 55.76%
MMP9 [2]
  Enzymolysis efficiency (%): 79.26%

## CC(=O)N[C@@H](CO)C(=O)N1CCC[C@H]1C(=O)N[C@@H](CCCNC(=N)N)C(=O)N1CCC[C@H]1C(=O)N[C@@H](CC(C)C)C(=O)N[C@H](C(=O)N[C@@H](CCCNC(N)=O)C(N)=O)C(C)C [Compound 2-P20] (Ac-SPRPLV[Cit]-NH2)
MMP2 [1]
  Enzymolysis efficiency (%): 52.52%
MMP9 [2]
  Enzymolysis efficiency (%): 57.87%

## CC(=O)N[C@@H](CO)C(=O)N1CCC[C@H]1C(=O)N[C@@H](CCCNC(=N)N)C(=O)N[C@@H](CC(N)=O)C(=O)N[C@@H](CC(C)C)C(=O)N[C@H](C(=O)N[C@@H](CCCNC(N)=O)C(N)=O)C(C)C [Compound 2-P21] (Ac-SPRNLV[Cit]-NH2)
MMP2 [1]
  Enzymolysis efficiency (%): 70.46%
MMP9 [2]
  Enzymolysis efficiency (%): 95.84%

## CC(=O)N[C@@H](CO)C(=O)N1CCC[C@H]1C(=O)N[C@@H](CCCNC(N)=O)C(=O)NCC(=O)N[C@@H](CC(C)C)C(=O)N[C@H](C(=O)N[C@@H](CCCNC(N)=O)C(N)=O)C(C)C [Compound 2-P22] (Ac-SP[Cit]GLV[Cit]-NH2)
MMP2 [1]
  Enzymolysis efficiency (%): 55.25%
MMP9 [2]
  Enzymolysis efficiency (%): 73.74%

## CC(=O)N[C@@H](CO)C(=O)N1CCC[C@H]1C(=O)N[C@@H](CCCNC(N)=O)C(=O)N[C@@H](CO)C(=O)N[C@@H](CC(C)C)C(=O)N[C@H](C(=O)N[C@@H](CCCNC(N)=O)C(N)=O)C(C)C [Compound 2-P23] (Ac-SP[Cit]SLV[Cit]-NH2)
MMP2 [1]
  Enzymolysis efficiency (%): 33.63%
MMP9 [2]
  Enzymolysis efficiency (%): 59.39%

## CC(=O)N[C@@H](CO)C(=O)N1CCC[C@H]1C(=O)N[C@@H](CCCNC(N)=O)C(=O)N1CCC[C@H]1C(=O)N[C@@H](CC(C)C)C(=O)N[C@H](C(=O)N[C@@H](CCCNC(N)=O)C(N)=O)C(C)C [Compound 2-P24] (Ac-SP[Cit]PLV[Cit]-NH2)
MMP2 [1]
  Enzymolysis efficiency (%): 45.97%
MMP9 [2]
  Enzymolysis efficiency (%): 38.72%

## CC(=O)NCC(=O)N1CCC[C@H]1C(=O)N[C@@H](C)C(=O)N1CCC[C@H]1C(=O)N[C@@H](CC(C)C)C(=O)N[C@H](C(=O)N[C@@H](CCCNC(N)=O)C(N)=O)C(C)C [Compound 2-P25] (Ac-GPAPLV[Cit]-NH2)
MMP2 [1]
  Enzymolysis efficiency (%): 85.08%
MMP9 [2]
  Enzymolysis efficiency (%): 45.37%

## CC(=O)NCC(=O)N1CCC[C@H]1C(=O)N[C@@H](C)C(=O)N[C@@H](CC(N)=O)C(=O)N[C@@H](CC(C)C)C(=O)N[C@H](C(=O)N[C@@H](CCCNC(N)=O)C(N)=O)C(C)C [Compound 2-P26] (Ac-GPANLV[Cit]-NH2)
MMP2 [1]
  Enzymolysis efficiency (%): 100.00%
MMP9 [2]
  Enzymolysis efficiency (%): 84.35%

## CC(=O)NCC(=O)N1CCC[C@H]1C(=O)N[C@@H](CCCNC(=N)N)C(=O)NCC(=O)NC(CN(C)C)C(=O)N[C@H](C(=O)N[C@@H](CCCNC(N)=O)C(N)=O)C(C)C (stereo partly drawn) [Compound 2-P27] (Ac-GPRG[X1]V[Cit]-NH2)
MMP2 [1]
  Enzymolysis efficiency (%): 9.00%
MMP9 [2]
  Enzymolysis efficiency (%): 10.53%

## CC[C@@]1(O)C(=O)OCc2c1cc1n(c2=O)Cc2c-1nc1cc(F)c(C)c3c1c2[C@@H](NC(=O)OCc1ccc(NC(=O)[C@H](CCCNC(N)=O)NC(=O)[C@@H](NC(=O)[C@H](CC(C)C)NC(=O)[C@H](CC(N)=O)NC(=O)[C@H](CCCNC(N)=O)NC(=O)[C@@H]2CCCN2C(=O)CCCCCN2C(=O)C=CC2=O)C(C)C)cc1)CC3 [Compound L064-P005, MC-PCitNLVCit-PAB-DX8951] ({Hexanoyl(6-maleimido)}-P[Cit]NLV[Cit][PABC]-Exatecan)
MMP9 [3]
  MMP9 enzymolysis efficiency (%): 52.70%
MMP2 [4]
  MMP2 enzymolysis efficiency (%): 42.89%

## Ac-GPAALGGFG-NH2 [Compound 1-P24]
MMP2 [1]
  Enzymolysis efficiency (%): 96.89%
MMP9 [2]
  Enzymolysis efficiency (%): 37.13%

## Ac-GPAGLGGFG-NH2 [Compound 1-P19]
MMP2 [1]
  Enzymolysis efficiency (%): 89.82%
MMP9 [2]
  Enzymolysis efficiency (%): 29.28%

## Ac-GPASLGGFG-NH2 [Compound 1-P18]
MMP2 [1]
  Enzymolysis efficiency (%): 68.38%
MMP9 [2]
  Enzymolysis efficiency (%): 9.10%

## Ac-GPLGLGGFG-NH2 [Compound 1-P21]
MMP2 [1]
  Enzymolysis efficiency (%): 90.43%
MMP9 [2]
  Enzymolysis efficiency (%): 75.60%

## Ac-GPLSLGGFG-NH2 [Compound 1-P17]
MMP2 [1]
  Enzymolysis efficiency (%): 37.27%
MMP9 [2]
  Enzymolysis efficiency (%): 27.26%

## Ac-GPQGLGGFG-NH2 [Compound 1-P20]
MMP2 [1]
  Enzymolysis efficiency (%): 51.36%
MMP9 [2]
  Enzymolysis efficiency (%): 32.62%

## Ac-GPRGLGGFG-NH2 [Compound 1-P23]
MMP2 [1]
  Enzymolysis efficiency (%): 89.54%
MMP9 [2]
  Enzymolysis efficiency (%): 84.66%

## Ac-GPSALGGFG-NH2 [Compound 1-P25]
MMP2 [1]
  Enzymolysis efficiency (%): 83.12%
MMP9 [2]
  Enzymolysis efficiency (%): 38.53%

## Ac-GPSGLGGFG-NH2 [Compound 1-P22]
MMP2 [1]
  Enzymolysis efficiency (%): 82.72%
MMP9 [2]
  Enzymolysis efficiency (%): 37.81%

## Ac-HVLNLGGFG-NH2 [Compound 1-P14]
MMP2 [1]
  Enzymolysis efficiency (%): 11.78%
MMP9 [2]
  Enzymolysis efficiency (%): 4.86%

## Ac-IPVSLGGFG-NH2 [Compound 1-P16]
MMP2 [1]
  Enzymolysis efficiency (%): 13.02%
MMP9 [2]
  Enzymolysis efficiency (%): 13.30%

## Ac-VPLSLGGFG-NH2 [Compound 1-P15]
MMP2 [1]
  Enzymolysis efficiency (%): 40.90%
MMP9 [2]
  Enzymolysis efficiency (%): 33.25%
